# Where two headings read alike, the source gives them in different places. Peptide text beside a SMILES is read from it.
# Assays:
# GABA levels in the brain [1] = test: GABA levels in the brain after administration; format: in vivo; conditions: Gly-Gln administration; data from our laboratory
# Excerpt: This innovation is related with the use of glycyl-glutamine in the treatment and/or prophylaxis of depression disorder and/or anxiety, which meets all above-mentioned requirements, eliminates all disadvantages and provides some advantages. The purpose of the current invention is to use Glycyl-Glutamine (Gly-Gln) in the treatment and/or prophylaxis of depression and/or anxiety via its effects in the brain other than its metabolic products' (glycine and glutamine) separate effects. […] Glutamine exerts antidepressant effects by increasing gamma-aminobutyric acid (GABA) in the brain however Gly-Gln generates antidepressant effects by increasing serotonin levels in the brain. […] Although glutamine administration increases GABA levels in the brain.
# brainstem of rodents = conditions: applied on the brainstem of rodents iontophoretically (Parish et al., 1983); cited from earlier work
# [2] = administered peripherally; cited from earlier work
# [3] = tested on: conditioned place preference (nicotine); conditions: Goktalay et al., 2006; cited from earlier work
# [4] = tested on: conditioned place preference caused by morphine; conditions: Cavun et al., 2005; cited from earlier work
# use of alcohol = conditions: administered centrally (Resch et al., 2005; Simpson et al., 1998); cited from earlier work
# myocardial damage = conditions: Zhang et al., 2013; cited from earlier work
# [5] = tested on: serotonin output at the nucleus accumbency section of the brain; test: Brain micro-dialysis, serotonin output after intracerebroventricular injection; format: in vivo, rats; conditions: 100 nmol single intracerebroventricular dose; 2 hours monitoring; p<0.001; FIGS. 4 and 5
# Method: The source of the antidepressant effects of Gly-Gln, which is mentioned in the figure descriptions above, have been analyzed and shown in FIGS. 4 and 5. In FIGS. 4 and 5; the effect of Gly-Gin on the serotonin output at the nucleus accumbency section of the brain upon intracerebroventricular Gly-Gln injection can be seen. […] An increase in serotonin outputs can be observed in all time intervals throughout 2 hours of monitoring period following the Gly-Gln injection; however, no serotonin output could be observed from the rodents in the control group who had been administered saline injections by the same way. Serotonin, which is structurally a monoamine neurotransmitter, is a hormone, which makes people feel happy, energetic and lively. When, the subject matter hormone serotonin is deficient in people, they feel depressive, tired and boring. […] Furthermore, the word “Saline” indicated in FIGS. 4 and 5 means salty water. It is used for comparing with the tested medication by administering on the control group.
# [6] = tested on: cardiorespiratory depression; conditions: Unal et al., 1997; cited from earlier work
# [7] = tested on: thermogenesis caused by alpha-MSH; conditions: Resch and Millington, 1993; cited from earlier work
# GABA levels in the brain [8] = conditions: glutamine administration; cited from earlier work
compound,measurement,setting,value
"NCC(=O)N[C@@H](CCC(N)=O)C(=O)O [Gly-Gln, glycyl-glutamine] (H-Gly-Gln-OH)",GABA levels in the brain,GABA levels in the brain [1],does not alter
same,effect on cell ignition,brainstem of rodents,inhibiting effect
same,crossing of the blood-brain barrier,[2],could not across
same,conditioned place preference and deprivation syndrome (nicotine),[3],prevented
same,addition and tolerance developments (morphine),[4],inhibited
same,conditioned place preference caused by morphine,[4],prevented
same,deprivation symptoms (morphine),[4],decreased
same,use of alcohol,use of alcohol,decreased
same,effects on myocardial damage after severe burn injury,myocardial damage,beneficial effects
same,serotonin output at the nucleus accumbency section of the brain,[5],extremely increased
same,cardiorespiratory depression caused by beta-endorphin,[6],eliminated
same,cardiorespiratory depression caused by beta-endorphin and morphine,[6],eliminated
same,thermogenesis caused by alpha-MSH,[7],antagonized
NC(=O)CC[C@@H]1NC(=O)CNC1=O [cyclo Gly-Gln],crossing of the blood-brain barrier,[2],could be across
same,cardiorespiratory depression caused by beta-endorphin and morphine,[6],eliminated
NC(=O)CC[C@H](N)C(=O)O [glutamine],GABA levels in the brain,GABA levels in the brain [8],increases
"beta-endorphin (YGGFMTSEKSQTPLVTLFKNAIIKNAYKKGE; Beta-endorphin; UniProt P01189 237-267, looked up) [endogenous peptide from which Gly-Gln is produced, reference compound]",use of alcohol,use of alcohol,increased

# — US9980931B2, “Use of glycyl glutamine against depression” (priority 2013, dated 2018)
